In general, Emax refers to the size of the effect at its maximum, as opposed to the concentration needed. By Ki is commonly meant the dissociation constant of the complex between target and ligand, obtained from inhibition or displacement. A lower Ki goes with higher affinity. The pIC50 is the IC50 on a negative log10 scale, so that one unit is a factor of ten. The term inhibition denotes the percentage by which the read-out fell short of the control. A word on the EC50: it is the concentration giving half of the maximal effect. By pEC50 is commonly meant the EC50 on a negative log10 scale, so that one unit is a factor of ten. In general, IC50 refers to the concentration that gives 50% inhibition. High values mean lower potency, low ones higher potency.

The record followed here is ChEMBL document CHEMBL1212839 (J Med Chem, 2010).

Molecules are shown by their SMILES.

In experiment [1] the target is Mu-type opioid receptor (Rattus norvegicus) (UniProt P33535). The experiment in a line: Agonist activity at rat mu opioid receptor expressed in mouse HN9.10 cells assessed as [35S]GTPgammaS binding relative to control. The format is functional, cell-based. (In general: Binding of GTPγS marks nucleotide exchange on a G protein.)
Chain of Mu-type opioid receptor (Rattus norvegicus) (P33535 whole entry): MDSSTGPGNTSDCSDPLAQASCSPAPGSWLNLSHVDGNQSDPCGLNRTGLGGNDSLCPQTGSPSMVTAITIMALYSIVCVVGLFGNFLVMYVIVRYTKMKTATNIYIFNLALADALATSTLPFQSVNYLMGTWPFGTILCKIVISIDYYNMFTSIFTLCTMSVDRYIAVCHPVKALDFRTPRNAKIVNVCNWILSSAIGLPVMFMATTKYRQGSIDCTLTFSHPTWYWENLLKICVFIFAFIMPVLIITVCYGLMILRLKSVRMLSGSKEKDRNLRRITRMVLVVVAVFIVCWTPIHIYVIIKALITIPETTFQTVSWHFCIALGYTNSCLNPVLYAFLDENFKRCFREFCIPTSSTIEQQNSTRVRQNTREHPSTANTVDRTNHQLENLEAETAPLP
Experiment [2] has as its target T1, Delta-type opioid receptor (Homo sapiens, UniProt P41143). The experiment in a line: Displacement of [3H]DPDPE from human delta opioid receptor. A general note: Loss of bound radioactivity is the signal in a displacement assay; it reports binding, not function.
In experiment [3] the target is T2, Mu-type opioid receptor (Rattus norvegicus, UniProt P33535). The experiment in a line: Displacement of [3H]DPDPE from rat mu opioid receptor.
T2 sequence (P33535 whole entry): as above
In experiment [4] the target is Mu-type opioid receptor (Cavia porcellus) (UniProt P97266). The following applies: Ileum, 1 uM.
Chain of Mu-type opioid receptor (Cavia porcellus) (P97266 whole entry): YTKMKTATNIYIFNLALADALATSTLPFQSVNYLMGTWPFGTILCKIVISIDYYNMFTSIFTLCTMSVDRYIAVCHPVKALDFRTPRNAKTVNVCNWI
Experiment [5] addresses T2, Mu-type opioid receptor. The experiment in a line: Agonist activity at rat mu opioid receptor expressed in mouse HN9.10 cells assessed as [35S]GTPgammaS binding. The format is functional, cell-based.
Experiment [6] has as its target Substance-P receptor (Homo sapiens, UniProt P25103). Kind of experiment: Displacement of [3H]substance P frome human NK1 receptor.
Experiment [7] addresses T1, Delta-type opioid receptor. The experiment in a line: Agonist activity at human opioid delta receptor expressed in mouse HN9.10 cells assessed as [35S]GTPgammaS binding. The class given is functional, cell-based.
Experiment [8] concerns the target T3, Delta-type opioid receptor (Mus musculus, UniProt P32300).
Experiment [9] addresses Substance-P receptor (Cavia porcellus) (UniProt P30547). Particulars: Ileum.
For experiment [10], the target named is T3, Delta-type opioid receptor. The source holds these as a separate data set.

T1 sequence (P41143 whole entry): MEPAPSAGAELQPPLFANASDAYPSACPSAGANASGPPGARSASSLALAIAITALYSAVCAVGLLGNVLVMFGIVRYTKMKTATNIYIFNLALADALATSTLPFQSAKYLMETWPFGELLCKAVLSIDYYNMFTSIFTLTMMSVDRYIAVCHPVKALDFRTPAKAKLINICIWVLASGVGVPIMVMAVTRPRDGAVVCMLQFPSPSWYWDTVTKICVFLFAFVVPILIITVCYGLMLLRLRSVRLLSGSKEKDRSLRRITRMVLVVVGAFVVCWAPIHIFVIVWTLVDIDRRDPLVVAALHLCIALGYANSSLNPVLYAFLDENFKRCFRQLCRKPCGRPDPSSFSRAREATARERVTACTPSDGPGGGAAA
Chain of Substance-P receptor (P25103 whole entry): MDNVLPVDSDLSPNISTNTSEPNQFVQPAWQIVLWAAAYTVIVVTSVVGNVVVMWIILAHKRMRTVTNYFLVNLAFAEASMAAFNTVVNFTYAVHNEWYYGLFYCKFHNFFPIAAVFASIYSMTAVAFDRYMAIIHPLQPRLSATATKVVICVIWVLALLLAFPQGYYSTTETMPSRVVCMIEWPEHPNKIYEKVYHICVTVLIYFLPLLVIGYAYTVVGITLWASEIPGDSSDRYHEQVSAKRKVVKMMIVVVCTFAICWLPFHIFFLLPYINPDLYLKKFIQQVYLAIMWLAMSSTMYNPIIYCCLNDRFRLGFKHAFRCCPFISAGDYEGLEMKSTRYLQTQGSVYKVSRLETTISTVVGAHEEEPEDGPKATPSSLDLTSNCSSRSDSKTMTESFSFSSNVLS
T3 sequence (P32300 whole entry): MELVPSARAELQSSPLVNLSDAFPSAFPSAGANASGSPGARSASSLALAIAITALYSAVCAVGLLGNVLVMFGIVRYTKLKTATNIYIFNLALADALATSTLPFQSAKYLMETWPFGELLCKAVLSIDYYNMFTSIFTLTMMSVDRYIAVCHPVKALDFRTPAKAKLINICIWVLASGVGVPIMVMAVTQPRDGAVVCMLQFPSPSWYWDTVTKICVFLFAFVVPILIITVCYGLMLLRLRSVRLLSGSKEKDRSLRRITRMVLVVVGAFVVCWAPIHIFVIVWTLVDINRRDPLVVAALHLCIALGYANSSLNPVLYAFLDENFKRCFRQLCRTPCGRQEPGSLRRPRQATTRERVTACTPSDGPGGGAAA
Chain of Substance-P receptor (Cavia porcellus) (P30547 whole entry): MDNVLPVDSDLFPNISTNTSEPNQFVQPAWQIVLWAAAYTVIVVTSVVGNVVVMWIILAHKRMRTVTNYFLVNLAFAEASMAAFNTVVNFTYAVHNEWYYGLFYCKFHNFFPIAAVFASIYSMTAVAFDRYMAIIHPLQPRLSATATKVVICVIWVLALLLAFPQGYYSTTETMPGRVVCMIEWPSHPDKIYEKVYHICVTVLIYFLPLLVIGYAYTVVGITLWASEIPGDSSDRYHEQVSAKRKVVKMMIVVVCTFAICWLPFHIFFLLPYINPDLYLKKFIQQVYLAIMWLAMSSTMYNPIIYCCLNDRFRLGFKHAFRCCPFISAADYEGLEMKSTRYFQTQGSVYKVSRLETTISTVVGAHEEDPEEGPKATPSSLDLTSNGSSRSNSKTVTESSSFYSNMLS

Regarding `CCCC[C@@H]1NC(=O)[C@H](Cc2ccccc2)NC(=O)CNC(=O)[C@@H](NC(=O)[C@@H](N)Cc2ccc(O)cc2)C(C)(C)SSC(C)(C)[C@H](C(=O)N2CCC[C@H]2C(=O)N[C@@H](CC(C)C)C(=O)N[C@@H](Cc2c[nH]c3ccccc23)C(=O)NCc2cc(C(F)(F)F)cc(C(F)(F)F)c2)NC(=O)[C@@H]2CCCN2C1=O`, the Emax in [1] turned out to be 15%. Moreover, the results for the Ki in experiment [2], in [3] and in experiment [6] were 150 nM, 2000 nM and 59 nM, respectively. Further, the pIC50 in experiment [2] turned out to be 6.5; in experiment [3], 5.43; in [6], 6.87. Moreover, the inhibition in [4] was 6%. For the same compound, the EC50 came out at 2900 nM in experiment [5] and 530 nM in [7]. In addition, the pEC50 in experiment [5] worked out at 5.67. In experiment [8], the concentration for half-maximal inhibition (IC50) turned out to be 250 nM. This compound registered a Ke in experiment [9] of 72 nM.
As to `CC(C)C[C@H](NC(=O)[C@@H]1CCCN1C(=O)[C@@H]1NC(=O)[C@H](Cc2ccccc2)NC(=O)CNC(=O)[C@@H](NC(=O)[C@@H](N)Cc2ccc(O)cc2)C(C)(C)SSC1(C)C)C(=O)N[C@@H](Cc1c[nH]c2ccccc12)C(=O)NCc1cc(C(F)(F)F)cc(C(F)(F)F)c1`, the inhibition in experiment [4] stood at 26%.
Regarding `CCCC[C@@H]1NC(=O)[C@H](Cc2ccccc2)NC(=O)CNC(=O)[C@@H](NC(=O)[C@@H](N)Cc2ccc(O)cc2)C(C)(C)SSC(C)(C)[C@@H](C(=O)N2CCC[C@H]2C(=O)N[C@@H](CC(C)C)C(=O)N[C@@H](Cc2c[nH]c3ccccc23)C(=O)NCc2cc(C(F)(F)F)cc(C(F)(F)F)c2)NC(=O)[C@@H]2CCCN2C1=O`, in experiment [1], the Emax turned out to be 26%. For the same compound, the IC50 in experiment [10] is 1100 nM; in [2], 1380 nM; in experiment [3], 2040 nM; in [6] it was 4.27 nM. In addition, the Ki in experiment [2] was 720 nM; in [3] it was 1000 nM; in [6], 1.9 nM. Besides, the inhibition in [4] is 7%. For the same compound, the results for the EC50 in experiment [5] and in experiment [7] were 140 nM and 120 nM, respectively. For the same compound, the Ke in experiment [9] was found to be 66 nM.
On to `CC(C)C[C@H](NC(=O)[C@@H]1CCCN1C(=O)[C@H]1NC(=O)[C@H](Cc2ccccc2)NC(=O)CNC(=O)[C@@H](NC(=O)[C@@H](N)Cc2ccc(O)cc2)C(C)(C)SSC1(C)C)C(=O)N[C@@H](Cc1c[nH]c2ccccc12)C(=O)NCc1cc(C(F)(F)F)cc(C(F)(F)F)c1`, for which the half-maximal inhibitory concentration (IC50) in experiment [2] is 72.4 nM; in experiment [3] it was 4170 nM; in experiment [6] it was 0.417 nM. Moreover, the Ki in experiment [2] was 38 nM; in experiment [3] it was 2100 nM; in experiment [6] it was 0.18 nM. In [4], the inhibition came to 0.6%. For the same compound, the EC50 in experiment [5] stood at 130 nM; in [7], 120 nM.
Consider `CC(C)C[C@H](NC(=O)[C@@H]1CCCN1C(=O)[C@H]1NC(=O)[C@H](Cc2ccccc2)NC(=O)CNC(=O)[C@H](NC(=O)[C@@H](N)Cc2ccc(O)cc2)C(C)(C)SSC1(C)C)C(=O)N[C@@H](Cc1c[nH]c2ccccc12)C(=O)NCc1cc(C(F)(F)F)cc(C(F)(F)F)c1`, for which the concentration for half-maximal inhibition (IC50) in [2] is 3.63 nM; in experiment [3] it was 4370 nM; in experiment [6], 0.0123 nM.
